In one assay the target is T1, M1 muscarinic receptor (Homo sapiens, UniProt P11229).
T1 construct: expressed in transfected cells; host or cells: CHO (M1-CHO)
T1 sequence (P11229 1-460): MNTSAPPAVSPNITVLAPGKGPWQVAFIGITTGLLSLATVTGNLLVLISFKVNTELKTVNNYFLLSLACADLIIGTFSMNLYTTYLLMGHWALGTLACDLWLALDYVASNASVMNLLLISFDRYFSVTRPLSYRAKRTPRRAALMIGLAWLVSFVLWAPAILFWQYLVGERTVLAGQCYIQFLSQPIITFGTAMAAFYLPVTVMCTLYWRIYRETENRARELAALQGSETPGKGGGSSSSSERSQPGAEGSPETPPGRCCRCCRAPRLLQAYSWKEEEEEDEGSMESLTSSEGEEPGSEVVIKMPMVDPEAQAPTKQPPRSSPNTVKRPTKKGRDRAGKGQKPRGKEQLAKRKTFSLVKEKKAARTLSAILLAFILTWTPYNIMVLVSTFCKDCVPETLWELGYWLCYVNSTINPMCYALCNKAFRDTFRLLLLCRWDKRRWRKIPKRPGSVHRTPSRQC
Put plainly: Functional mobilization of intracellular calcium (FLIPR) in M1-CHO cells. Type of assay: cell-based. The following applies: M1 receptor, calcium mobilization; for Emax: read-out: M1 Efficacy. A digest of the protocol: (§1)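 Intracellular calcium rise is measured by FLIPR fluorescence over 60 sec in CHO cells carrying human M1 or M4 receptors. Compounds are tested alone as agonists, or pre-incubated 15 min (or co-applied) ahead of carbachol at its EC80 to detect inhibition.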
In general terms: Calcium assays in cells follow changes in intracellular calcium, usually with a dye or a luminescent sensor.

In another assay the target is T2, M4 muscarinic receptor (Homo sapiens, UniProt P08173).
T2 construct: expressed in transfected cells; host or cells: CHO (M4-CHO)
T2 sequence (P08173 1-479): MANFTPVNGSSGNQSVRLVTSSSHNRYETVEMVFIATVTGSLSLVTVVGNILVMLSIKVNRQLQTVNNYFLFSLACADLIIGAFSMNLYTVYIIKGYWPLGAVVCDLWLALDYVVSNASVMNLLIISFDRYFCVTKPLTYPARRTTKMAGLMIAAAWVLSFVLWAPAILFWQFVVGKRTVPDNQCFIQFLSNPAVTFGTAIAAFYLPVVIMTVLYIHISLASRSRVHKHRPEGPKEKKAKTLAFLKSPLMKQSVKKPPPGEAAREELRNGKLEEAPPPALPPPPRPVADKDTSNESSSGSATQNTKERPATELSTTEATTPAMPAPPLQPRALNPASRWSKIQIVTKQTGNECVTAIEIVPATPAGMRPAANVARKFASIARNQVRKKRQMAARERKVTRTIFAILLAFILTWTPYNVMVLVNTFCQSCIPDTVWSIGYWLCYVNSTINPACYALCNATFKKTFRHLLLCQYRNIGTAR
Nature of the assay: Functional mobilization of intracellular calcium (FLIPR) in M4-CHO cells. Type of assay: cell-based. The following applies: M4 receptor, calcium mobilization; for Emax: read-out: M4 Efficacy. The procedure, abridged:
as §1

Bounds are passed on as bounds.

Turning to `CC(=O)N1CC2(CCN(C3CCCC3)CC2)c2cc(F)ccc21` [compound 343], at M1 muscarinic receptor, the “M1 Activity” value is recorded as “xxx (activity was measured to be less than 0.1 μM)” and the Emax was 65 to 85%. On M4 muscarinic receptor, the “M4 Activity” value was “xxx (activity was measured to be less than 0.1 μM)” and the Emax is less than 65%.
In the case of `CCOC(=O)N1C2CCC1CC(N1CCC3(CC1)CN(C(=O)O[C@@H]1CCOC1)c1ccc(F)cc13)C2` (some centres unmarked) [compound 344], on M1 muscarinic receptor, the “M1 Activity” value is “xxx (activity was measured to be less than 0.1 μM)”; the “M1 Efficacy” value was “xx (efficacy was calculated to be between 85% and 65%)”. At M4 muscarinic receptor, the “M4 Activity” value is “xx (activity was measured to be between 0.1 μM and 1.0 μM)”; the “M4 Efficacy” value is on record as “x (efficacy was calculated to be less than 65%)”.
With `CC(C)OC(=O)N1C2CCC1CC(N1CCC3(CC1)CN(C(=O)C1CC1)c1ccc(F)cc13)C2` (centres unmarked) [compound 345], at M1 muscarinic receptor, the “M1 Activity” value is “xxx (activity was measured to be less than 0.1 μM)” and the Emax is less than 65%. For the same compound, at M4 muscarinic receptor, the “M4 Activity” value was “xx (activity was measured to be between 0.1 μM and 1.0 μM)”; the Emax was less than 65%.
Take `CC#CCOC(=O)N1CC2(CCN(C3CCN(C(=O)OCC)CC3)CC2)c2cc(F)ccc21` [compound 346]: on M1 muscarinic receptor, the “M1 Activity” value was “xxx (activity was measured to be less than 0.1 μM)” and the Emax is less than 65%. Further, at M4 muscarinic receptor, the “M4 Activity” value is reported as “x (activity was measured to be greater than 1.0 μM)” and the Emax is less than 65%.
As to `CCOC(=O)N(C)[C@H]1CC2(CCN(C[C@H]3C[C@H]4CC[C@H]3C4)CC2)c2ccccc21` [compound 347], at M1 muscarinic receptor, the “M1 Activity” value is listed as “xxx (activity was measured to be less than 0.1 μM)” and the Emax fell in the range of 65 to 85%. In addition, on M4 muscarinic receptor, the “M4 Activity” value was “xx (activity was measured to be between 0.1 μM and 1.0 μM)”; the Emax was greater than 85%.
`Clc1ccc2c(c1)C1(CCN(C3CCC4CCC3C4)CC1)CN2` (centres unmarked) [compound 348]: on M1 muscarinic receptor, the “M1 Activity” value is listed as “xxx (activity was measured to be less than 0.1 μM)” and the Emax was greater than 85%. Also, at M4 muscarinic receptor, the “M4 Activity” value is “xx (activity was measured to be between 0.1 μM and 1.0 μM)”; the Emax was greater than 85%.
Consider `Cc1ccc2c(c1)C1(CCN(C3CC4CCC3C4)CC1)CN2` (centres unmarked) [compound 350], for which, at M1 muscarinic receptor, the “M1 Activity” value is on record as “xxx (activity was measured to be less than 0.1 μM)” and the Emax is greater than 85%. Also, at M4 muscarinic receptor, the “M4 Activity” value is reported as “xxx (activity was measured to be less than 0.1 μM)” and the Emax is greater than 85%.
`CCOC(=O)N1C2CCC1CC(N1CCC3(CC1)CNc1ccc(Cl)cc13)C2` (centres unmarked) [compound 351]: on M1 muscarinic receptor, the “M1 Activity” value is on record as “xxx (activity was measured to be less than 0.1 μM)” and the Emax fell in the range of 65 to 85%. For the same compound, at M4 muscarinic receptor, the “M4 Activity” value is “xx (activity was measured to be between 0.1 μM and 1.0 μM)”; the Emax is greater than 85%.
As to `CCOC(=O)N1CCC(N2CCC3(CC2)CNc2ccccc23)CC1` [compound 352], on M1 muscarinic receptor, the “M1 Activity” value is listed as “xxx (activity was measured to be less than 0.1 μM)” and the Emax was greater than 85%. At M4 muscarinic receptor, the “M4 Activity” value is reported as “x (activity was measured to be greater than 1.0 μM)” and the Emax was greater than 85%.
Turning to `CC#CCOC(=O)N1CCC(N2CCC3(CC2)CN(C(=O)N(C)C)c2ccc(F)cc23)CC1` [compound 353], on M1 muscarinic receptor, the “M1 Activity” value is given as “xxx (activity was measured to be less than 0.1 μM)” and the Emax is greater than 85%. At M4 muscarinic receptor, the “M4 Activity” value is recorded as “x (activity was measured to be greater than 1.0 μM)” and the Emax is 65 to 85%.
`Cc1ccc2c(c1)C1(CCN(C3CC4CCC3C4)CC1)CN2S(=O)(=O)c1ccccc1` (centres unmarked) [compound 354]: at M1 muscarinic receptor, the “M1 Activity” value is “x (activity was measured to be greater than 1.0 μM)” and the Emax was 65 to 85%. Also, on M4 muscarinic receptor, the “M4 Activity” value is recorded as “x (activity was measured to be greater than 1.0 μM)” and the Emax was in the range of 65 to 85%.
With `O=C(O[C@H]1CCOC1)N1C2CCC1CC(N1CCC3(CCc4ccccc43)CC1)C2` (some centres unmarked) [compound 355], at M1 muscarinic receptor, the “M1 Activity” value is “xx (activity was measured to be between 0.1 μM and 1.0 μM)”; the Emax lay within 65 to 85%. Also, on M4 muscarinic receptor, the “M4 Activity” value was “xx (activity was measured to be between 0.1 μM and 1.0 μM)”; the Emax was in the range of 65 to 85%.
Consider `CN([C@H]1CC2(CCN(C[C@H]3C[C@H]4CC[C@H]3C4)CC2)c2ccccc21)S(C)(=O)=O` [compound 357], for which, at M1 muscarinic receptor, the “M1 Activity” value was “xx (activity was measured to be between 0.1 μM and 1.0 μM)”; the Emax was less than 65%. Further, at M4 muscarinic receptor, the “M4 Activity” value was “x (activity was measured to be greater than 1.0 μM)” and the Emax was less than 65%.
With `CC(=O)N[C@H]1CC2(CCN(C3CCC[C@@H](C)C3)CC2)c2ccccc21` (some centres unmarked) [compound 358], at M1 muscarinic receptor, the “M1 Activity” value is given as “xxx (activity was measured to be less than 0.1 μM)” and the Emax is 65 to 85%. For the same compound, at M4 muscarinic receptor, the “M4 Activity” value was “xx (activity was measured to be between 0.1 μM and 1.0 μM)”; the Emax was in the range of 65 to 85%.
As for `CCOC(=O)N1C2CCC1CC(N1CCC3(CC1)C[C@H](NC(C)=O)c1ccccc13)C2` (some centres unmarked) [compound 359], on M1 muscarinic receptor, the “M1 Activity” value is “xx (activity was measured to be between 0.1 μM and 1.0 μM)”; the Emax is less than 65%. In addition, at M4 muscarinic receptor, the “M4 Activity” value is “xx (activity was measured to be between 0.1 μM and 1.0 μM)”; the Emax was less than 65%.
For `CCCOC(=O)N1C2CCC1CC(N1CCC3(CC1)CN(C(=O)N(C)C)c1ccc(F)cc13)C2` (centres unmarked) [compound 360], at M1 muscarinic receptor, the “M1 Activity” value is “xx (activity was measured to be between 0.1 μM and 1.0 μM)”; the Emax was 65 to 85%. For the same compound, on M4 muscarinic receptor, the “M4 Activity” value is on record as “x (activity was measured to be greater than 1.0 μM)” and the Emax is less than 65%.
Turning to `CC(C)OC(=O)N1C2CCC1CC(N1CCC3(CC1)CN(C(=O)O[C@@H]1CCOC1)c1ccc(F)cc13)C2` (some centres unmarked) [compound 361], on M1 muscarinic receptor, the “M1 Activity” value was “xx (activity was measured to be between 0.1 μM and 1.0 μM)”; the Emax is less than 65%. Moreover, on M4 muscarinic receptor, the “M4 Activity” value is given as “x (activity was measured to be greater than 1.0 μM)” and the Emax was less than 65%.
As for `CCOC(=O)N1C2CCC1CC(N1CCC3(CC1)CN(C(=O)N(C)C)c1ccc(F)cc13)C2` (centres unmarked) [compound 362], on M1 muscarinic receptor, the “M1 Activity” value was “xx (activity was measured to be between 0.1 μM and 1.0 μM)”; the Emax is 65 to 85%. Besides, at M4 muscarinic receptor, the “M4 Activity” value is “x (activity was measured to be greater than 1.0 μM)” and the Emax was less than 65%.
Consider `O=C(OCC1CCCO1)N1C2CCC1CC(N1CCC3(CC1)COc1ccc(F)cc13)C2` (centres unmarked) [compound 363], for which, at M1 muscarinic receptor, the “M1 Activity” value is “xx (activity was measured to be between 0.1 μM and 1.0 μM)”; the Emax is less than 65%. At M4 muscarinic receptor, the “M4 Activity” value is recorded as “x (activity was measured to be greater than 1.0 μM)” and the Emax is less than 65%.
`C#CCOC(=O)N1CCC(CN2CCC3(CC2)C[C@H](NC(C)=O)c2ccccc23)CC1` [compound 364]: on M1 muscarinic receptor, the “M1 Activity” value was “xxx (activity was measured to be less than 0.1 μM)” and the Emax is greater than 85%. Moreover, on M4 muscarinic receptor, the “M4 Activity” value is recorded as “x (activity was measured to be greater than 1.0 μM)” and the Emax was less than 65%.
For `CCOC(=O)N1C2CCC1CC(N1CCC3(CCc4ccccc43)CC1)C2` (centres unmarked) [compound 365], on M1 muscarinic receptor, the “M1 Activity” value is listed as “xxx (activity was measured to be less than 0.1 μM)” and the Emax was in the range of 65 to 85%. Besides, at M4 muscarinic receptor, the “M4 Activity” value is listed as “x (activity was measured to be greater than 1.0 μM)” and the Emax is less than 65%.
On to `CC(=O)N1CC2(CCN(CC3CC4CCC3CC4)CC2)c2cc(F)ccc21` (centres unmarked) [compound 366], for which, at M1 muscarinic receptor, the “M1 Activity” value was “xx (activity was measured to be between 0.1 μM and 1.0 μM)”; the Emax is less than 65%. Also, at M4 muscarinic receptor, the “M4 Activity” value is “x (activity was measured to be greater than 1.0 μM)” and the Emax was less than 65%.
Turning to `CCC1CCC(N2CCC3(CC2)C[C@H](NC(C)=O)c2ccccc23)CC1` (some centres unmarked) [compound 367], at M1 muscarinic receptor, the “M1 Activity” value is reported as “x (activity was measured to be greater than 1.0 μM)” and the Emax was less than 65%. Moreover, on M4 muscarinic receptor, the “M4 Activity” value is “x (activity was measured to be greater than 1.0 μM)” and the Emax is less than 65%.
